# How the values were obtained:
# [1] = test system: AsPC-1 pancreatic ductal adenocarcinoma cell line; assay: Annexin V apoptosis assay, AsPC-1; assay type: cell-based
# Procedure: (§1) AsPC-1 (FIG. 4(a)) and Panc-1 (FIG. 4(b)), two pancreatic ductal adenocarcinoma cell line, were cultured for week in the presence or absence of […] of alloferon, and then 5×10^5 cells were cultured with 250 nM of gemcitabine for 36 hrs. To investigate whether alloferon increases the sensitivity of these cell lines against gemcitabine, the degree of cell death was examined by an Annexin V-7AAD assay. Cells were collected and washed three times with cold phosphate-buffered saline (PBS) and then resuspended in 1× Annexin V binding buffer at a concentration of 1×10^6 cells/ml (BD Biosciences). Transfer 100 μl of the solution (1×10^5 cells) to a 5 ml culture tube. Add 5 μl of FITC-conjugated Annexin V and incubated for 15 min at room temperature in the dark. Add 400 μl of 1× Annexin V binding buffer to each tube. After 1 μl of propidium iodide (PI) was added just prior to analyze by flow cytometry. Apoptotic cells were analyzed with LSRII flow cytometer (BD Biosciences) with excitation at 488 nm and emission at 525 nm.
# [2] = test system: Panc-1 pancreatic ductal adenocarcinoma cell line; assay: Annexin V apoptosis assay, Panc-1; assay type: cell-based
# Procedure: as §1
# AsPC-1 cells [3] = assay: Mitochondrial membrane potential assay, DiOC6(3) staining; assay type: cell-based; details: 0.5 mg/ml alloferon for week, 250 nM gemcitabine 36 hours
# Procedure: The effect of adjuvant treatment of alloferon and gemcitabine on mitochondrial function was also studied. AsPC-1 cells were cultured for week in the presence or absence of 0.5 mg/ml of alloferon. Then 5×10^5 cells were cultured with 250 nM of gemcitabine for 36 hours. The synergistic effect of alloferon with gemcitabine on the decrease of mitochondrial membrane potential, a general phenomenon associated with cell death by chemotherapeutic drugs, was investigated by staining with DiOC6(3), a green-fluorescent, lipophilic dye (ThermoFisher Scientific). Cells were collected and washed three times with PBS. Then 1×10^6 cells were resuspended in 1 ml freshly prepared 4% paraformaldehyde diluted from stock using PBS for 10 minutes at room temperature and then washed with 1 ml pre-warmed (37° C.) PBS three times. The DiOC6 stock solution was diluted into PBS to make 0.1 μM working solution. The cells were suspended at a density of 1×10^6 cells/ml in dye working solution and protected from light. The cells were incubated at 37° C. for 15 minutes. The cell suspensions were centrifuged at 130×g for 5 minutes. The supernatant was removed and the cells were gently resuspended in 1 ml pre-warmed PBS. The cells were analyzed with LSRII flow cytometer (BD Biosciences) with excitation at 488 nm and emission at 525 nm.
# AsPC-1 cells [4] = assay: AsPC-1 xenograft model in Balb/C (nu/nu) mice; assay type: in vivo
# Procedure: (§2) The anti-tumor effect of concomitant alloferon and gemcitabine treatment was also assessed by using xenograft animal model.
# (§3) Tumor burdens from each experimental animals were excised and compared its volumes (FIG. 8).
# Panc-1 cells = assay: Panc-1 xenograft model in Balb/C (nu/nu) mice; assay type: in vivo
# Procedure: as §2, §3
# [5] = gemcitabine 250 nM for 36 hrs, alloferon 0.5 μg/ml for a week
# [6] = subcutaneous, female Balb/C (nu/nu), calipers every 3-4 days
smiles,measurement,setting,value
Nc1ccn([C@@H]2O[C@H](CO)[C@@H](O)C2(F)F)c(=O)n1 [gemcitabine],"cytotoxic effects, ASPC-1",[1]; gemcitabine 250 nM,do not have cytotoxic effects
same,"apoptosis, AsPC-1",[1]; [5],do not induce apoptosis
same,"cytotoxic effects, PANC-1",[2]; gemcitabine 250 nM,do not have cytotoxic effects
same,"apoptosis, Panc-1",[2]; [5],do not induce apoptosis
same,mitochondrial membrane potential / mitochondrial dysfunction,AsPC-1 cells [3],does not induce mitochondrial dysfunction
same,"tumor growth (tumor volume), AsPC-1 xenograft",AsPC-1 cells [4]; [6],does not effectively suppress growth
same,"excised tumor burden volume, AsPC-1 xenograft","AsPC-1 cells [4]; tumor burdens excised, FIG. 8",does not effectively suppress growth
same,"tumor growth (tumor volume), Panc-1 xenograft",Panc-1 cells; [6],does not effectively suppress growth
same,"excised tumor burden volume, Panc-1 xenograft","Panc-1 cells; tumor burdens excised, FIG. 8",does not effectively suppress growth
